{"source": "patent US20050192337A1", "about": "“Processes and polymorphs of diaryl-indolone galr3 antagonists” (priority 2002, published 2005)", "type_in_all_cases": "physicochemical", "key": {"[1]": {"experiment": "Moisture sorption/desorption (moisture balance) of Compound I forms"}, "[2]": {"experiment": "Stress studies of Compound I (heat stress, XRPD of resulting solid)", "conditions": "for Stability to heat stress: Table 7", "description": "(§1) X-ray powder diffraction (XRPD) analyses were performed using a Shimadzu XRD-6000 X-ray powder diffractometer using Cu Kα radiation. The instrument was equipped with a fine focus X-ray tube. The tube voltage and amperage were set to 40 kV and 40 mA, respectively. The divergence and scattering slits were set at 1° and the receiving slit was set at 0.15 mm. Diffracted radiation was detected by a NaI scintillation detector. A theta-two theta continuous scan at 3°/min (0.4 sec/0.02° step) from 2.5 to 40° 2θ was used. A silicon standard was analyzed to check the instrument alignment. Data were collected and analyzed using XRD-6000 v. 4.1. Samples were prepared for analysis by placing them in a silicon sample holder or aluminum holder with silicon insert. X-ray powder diffraction (XRPD) analyses were also performed using an Inel XRG-3000 diffractometer equipped with a CPS (Curved Position Sensitive) detector with a 2θ range of 120°. Real time data were collected using Cu-Kα radiation starting at approximately 4° 2θ at a resolution of 0.03° 2θ. The tube voltage and amperage were set to 40 kV and 30 mA, respectively. The monochromator slit was set at 5 mm by 80 μm. […] Samples were prepared for analysis by packing them into thin-walled glass capillaries. Each capillary was mounted onto a goniometer head that is motorized to permit spinning of the capillary during data acquisition. The samples were analyzed for 5 min. Instrument calibration was performed using a silicon reference standard.\n(§2) All three polymorphs are also non-hygroscopic, as indicated by the data in Table 8."}, "[3]": {"experiment": "Slurry experiments on Compound I crystalline forms (XRPD)", "conditions": "for Conversion upon stirring as a slurry in an organic solvent: a few hours to several days, Tables 9 and 10", "description": "as §1, §2\nForm I can be obtained in a straightforward fashion by stirring a slurry of any solid form of Compound I, and particularly Form II or III, in an organic solvent in which Compound I is partially soluble, for several hours until the material converts completely to Form I. Formation of Form I can be analyzed through DSC or, preferably, XRPD analysis. In one embodiment of the invention, a slurry of solid Compound I in an organic solvent is generated by cooling a hot, saturated solution of Compound I in an organic solvent, allowing crystals to form, then stirring the resulting slurry for several hours or a few days until the solid material converts substantially or completely to Form I. In a preferred embodiment, the hot, saturated solution of Compound I is generated in situ in the one-pot synthetic process described above. Form I can also be prepared by slurrying for several hours Compound I, Form II in a saturated methanol solution or in an appropriate solvent."}, "[4]": {"experiment": "Interconversion experiments of Compound I (slurry of mixed forms, XRPD)", "conditions": "25° C.", "description": "as §1, with “Each capillary was mounted onto a goniometer head that is motorized to permit spinning of the capillary during data acquisition.” left out, “Instrument calibration was performed using a silicon reference standard.” left out"}, "[5]": {"experiment": "Differential scanning calorimetry, relative stability of forms on heating", "conditions": "high temperatures, DSC 1° C./min", "description": "Differential scanning calorimetry (DSC) was performed using a TA Instruments differential scanning calorimeter 2920. The sample was placed into an aluminum DSC pan, and the weight accurately recorded. The pan was covered with a lid and left uncrimped. Each sample was equilibrated at 25° C. and heated under a nitrogen purge at a rate of 10 or 20° C./min, up to a final temperature of 270° C. or 350° C. Samples were also heated at 1 or 5° C./min up to 150° C."}}, "data": [{"molecule": "O=C1C(=Nc2cccc(C(F)(F)F)c2)c2ccccc2N1c1ccccc1", "note": "(racemic) [Form III, 1-phenyl-3-[[3-(trifluoromethyl)phenyl]imino]-1H-indol-2-one]", "values": [{"measurement": "Hygroscopicity", "setting": "[1]", "value": "nonhygroscopic"}, {"measurement": "Moisture Balance Results: weight loss at 5% RH", "setting": "[1]; 5% RH", "value": "<0.1% weight loss at 5% RH,"}, {"measurement": "Moisture Balance Results: total weight gain at 95% RH", "setting": "[1]; listed as III", "value": "<0.1", "unit": "% total weight gain at"}, {"measurement": "Result (XRPD form after stress)", "setting": "[2]; 60 C., 4 days", "value": "III (SS)"}, {"measurement": "Result (XRPD form after stress)", "setting": "[2]; 70 C., 4 days", "value": "III (SS)"}, {"measurement": "Result (XRPD form after stress)", "setting": "[2]; 80 C., 4 days", "value": "III (SS)"}, {"measurement": "Stability to heat stress", "setting": "[2]", "value": "relatively stable to heat stress"}, {"measurement": "Conversion upon stirring as a slurry in an organic solvent", "setting": "[3]", "value": "convert to Form I"}]}, {"molecule": "O=C1C(=Nc2cccc(C(F)(F)F)c2)c2ccccc2N1c1ccccc1", "note": "(racemic) [amorphous, 1-phenyl-3-[[3-(trifluoromethyl)phenyl]imino]-1H-indol-2-one]", "values": [{"measurement": "Moisture Balance Results: weight gain at 5% RH", "setting": "[1]; 5% RH", "value": "<0.1% weight gain at 5% RH,"}, {"measurement": "Moisture Balance Results: total weight gain at 95% RH", "setting": "[1]", "value": 0.3, "unit": "% total weight gain at"}, {"measurement": "XRPD Results on solid after moisture balance run", "setting": "[1]; after moisture balance run", "value": "amorphous"}, {"measurement": "Result (XRPD form after stress)", "setting": "[2]; 60 C./17 hours", "value": "III (LC)"}]}, {"molecule": "O=C1/C(=N\\c2cccc(C(F)(F)F)c2)c2ccccc2N1c1ccccc1", "note": "[Compound I, 1-phenyl-3-[[3-(trifluoromethyl)phenyl]imino]-1H-indol-2-one]", "values": [{"measurement": "Moisture Balance Results: weight loss at 5% RH", "setting": "[1]; 5% RH", "value": "<0.1% weight loss at 5% RH,"}, {"measurement": "Moisture Balance Results: total weight gain at 95% RH", "setting": "[1]", "value": "<0.1", "unit": "% total weight gain at"}, {"measurement": "XRPD Results after slurry", "setting": "[3]; MeOH, ambient, 11 d", "value": "I (PO)"}]}, {"molecule": "O=C1/C(=N\\c2cccc(C(F)(F)F)c2)c2ccccc2N1c1ccccc1", "note": "[Form I, 1-phenyl-3-[[3-(trifluoromethyl)phenyl]imino]-1H-indol-2-one]", "values": [{"measurement": "Hygroscopicity", "setting": "[1]", "value": "nonhygroscopic"}, {"measurement": "Stability to heat stress", "setting": "[2]", "value": "relatively stable to heat stress"}, {"measurement": "Relative stability of forms", "setting": "[4]", "value": "more stable than either Form II or III"}, {"measurement": "Conversion upon stirring as a slurry in an organic solvent", "setting": "[3]", "value": "remains unchanged"}]}, {"molecule": "O=C1/C(=N\\c2cccc(C(F)(F)F)c2)c2ccccc2N1c1ccccc1", "note": "[Form II, 1-phenyl-3-[[3-(trifluoromethyl)phenyl]imino]-1H-indol-2-one]", "values": [{"measurement": "Moisture Balance Results: weight loss at 5% RH", "setting": "[1]; 5% RH", "value": "<0.1% weight loss at 5% RH,"}, {"measurement": "Moisture Balance Results: total weight gain at 95% RH", "setting": "[1]", "value": "<0.1", "unit": "% total weight gain at"}, {"measurement": "Result (XRPD form after stress)", "setting": "[2]; 80 C., 4 days", "value": "II (PO) + peak@5° 2θ"}, {"measurement": "Stability to heat stress", "setting": "[2]", "value": "relatively stable to heat stress"}, {"measurement": "Relative stability of forms", "setting": "[5]", "value": "more stable than Form I"}, {"measurement": "XRPD Results after slurry", "setting": "[3]; Experiment 3, MeOH, 25° C., 1 hour", "value": "II + I (minor)"}, {"measurement": "XRPD Results after slurry", "setting": "[3]; Experiment 4, MeOH, 25° C., 1 hour", "value": "I + II"}, {"measurement": "XRPD Results after slurry", "setting": "[3]; Experiment 4, MeOH, 25° C., 1 hour 20 min", "value": "I + II"}, {"measurement": "XRPD Results after slurry", "setting": "[3]; Experiment 4, MeOH, 25° C., 1 hour 40 min", "value": "I + II (minor)"}, {"measurement": "XRPD Results after slurry", "setting": "[3]; MeOH, ambient, 11 d", "value": "I (PO)"}, {"measurement": "Conversion upon stirring as a slurry in an organic solvent", "setting": "[3]", "value": "convert to Form I"}]}]}
